Assay results taken from paper PMC7281072 (Cancers, 2020).

Legend:
[1] = system: OVCAR-5 human ovarian adenocarcinoma xenograft; parameters: species or system CB17 SCID mice; settings: mouse, in vivo; for Cures (mice alive for 120 days after tumor inoculation) / MST (mean survival time) / T/C% (mean survival time of treated versus saline controls) / TI% (Tumor Inhibition) / size of the primary tumor: ip
OVCAR-3 cancer cell line = assay: cells; settings: Homo sapiens, OVCAR-3, 48 h; for GI50: read-out: GI50 (50% Growth Inhibition); for IC50: read-out: IC50 (cytotoxic effect)
pERK1,2 = assay: Western immunoblotting densitometry, pERK1,2, SKOV-3 cells; format: cell-based, human; settings: 25 μM; for ratio [pERK1+pERK2]/[GAPDH] band intensity: SKOV-3 cells; for ratio [pERK1+pERK2]/[GAPDH] band intensity, single blot (panel A): panel A lower set, cell line not given
in vivo = settings: both, CB17 SCID, mouse, ip

**Q.** For `C[C@]12CC[C@H]3[C@@H](CCC4=CC(=O)NCC[C@@]43C)[C@@H]1CC[C@@H]2OC(=O)CCOc1ccc(N(CCCl)CCCl)cc1` [ENGA-L06E, 5a,7a-dimethyl-2-oxo-2,3,4,5,5a,5b,6,7,7a,8,9,10,10a,10b,11,12-hexa decahydrocyclopenta [5, 6] naphtho [1,2-d] azepin-8-yl 3-(4-(bis(2-chloroethyl)amino)phenoxy) propanoate], which “Median Overall Survival (OS)” value [1] is on record?
**A.** 98 days

**Q.** And the “Progression Free Survival (PFS)” value [1]?
**A.** 27 days

**Q.** And the “Response Rate (RR)” value [1]?
**A.** 100%

**Q.** What about the “Cures (mice alive for 120 days after tumor inoculation)” value [1] of the same molecule?
**A.** 0/5

**Q.** What about the “MST (mean survival time)” value [1] of the same molecule?
**A.** 93.2 ± 2.4 p < 0.01 Days

**Q.** And the “T/C% (mean survival time of treated versus saline controls)” value [1]?
**A.** 184.8%

**Q.** And the “TI% (Tumor Inhibition)” value [1]?
**A.** 117.0%

**Q.** And the “size of the primary tumor” value [1]?
**A.** 220 ± 19.1 mm^3

**Q.** What about the GI50 (OVCAR-3 cancer cell line) of the same molecule?
**A.** 22 ± 0.9 µM

**Q.** And the IC50 (OVCAR-3 cancer cell line)?
**A.** 43 ± 2.9 µM

**Q.** And the “ratio [pERK1+pERK2]/[GAPDH] band intensity” value (pERK1,2; 15min, control ratio 1.70)?
**A.** 1.91

**Q.** What about the “ratio [pERK1+pERK2]/[GAPDH] band intensity” value (pERK1,2; 30min, control ratio 1.70) of the same molecule?
**A.** 1.74

**Q.** What about the “ratio [pERK1+pERK2]/[GAPDH] band intensity” value (pERK1,2; 1h, control ratio 1.78) of the same molecule?
**A.** 1.35

**Q.** And the “ratio [pERK1+pERK2]/[GAPDH] band intensity” value (pERK1,2; 3h, control ratio 1.74)?
**A.** 0.68

**Q.** And the “ratio [pERK1+pERK2]/[GAPDH] band intensity” value (pERK1,2; 12h, control ratio 1.61)?
**A.** 0.65

**Q.** And the “ratio [pERK1+pERK2]/[GAPDH] band intensity, single blot (panel A)” value (from here on “ratio … (panel A)”) (pERK1,2; 1h, control ratio 1.78)?
**A.** 0.99

**Q.** What about the “ratio … (panel A)” value (pERK1,2; 3h, control ratio 1.78) of the same molecule?
**A.** 0.39

**Q.** With `C[C@]12CC[C@@H]3c4ccc(OC(=O)CCOc5ccc(N(CCCl)CCCl)cc5)cc4CC[C@H]3[C@@H]1CCC(=O)N2` [ENGA-L08E, 12a-methyl-2-oxo-1,2,3,4,4a,4b,5,6,10b,11,12,12a-dodecahydronaphtho[2,1-f]quinolin-8-yl 3-(4-(bis (2-chloroethyl)amino)phenoxy) propanoate] as the molecule, how does the “Median Overall Survival (OS)” value [1] read?
**A.** 127 days

**Q.** What about the “Progression Free Survival (PFS)” value [1] of the same molecule?
**A.** 34 days

**Q.** And the “Response Rate (RR)” value [1]?
**A.** 100%

**Q.** What about the “Cures (mice alive for 120 days after tumor inoculation)” value [1] of the same molecule?
**A.** 3/5

**Q.** And the “MST (mean survival time)” value [1]?
**A.** 94.8 ± 6.3 p < 0.01 Days

**Q.** What about the “T/C% (mean survival time of treated versus saline controls)” value [1] of the same molecule?
**A.** 187.8%

**Q.** And the “TI% (Tumor Inhibition)” value [1]?
**A.** 131.0%

**Q.** What about the “size of the primary tumor” value [1] of the same molecule?
**A.** 113 ± 14 mm^3

**Q.** And the GI50 (OVCAR-3 cancer cell line)?
**A.** 30 ± 2.1 µM

**Q.** What about the IC50 (OVCAR-3 cancer cell line) of the same molecule?
**A.** 56 ± 3.2 µM

**Q.** What about the “ratio [pERK1+pERK2]/[GAPDH] band intensity” value (pERK1,2; 15min, control ratio 1.70) of the same molecule?
**A.** 1.89

**Q.** What about the “ratio [pERK1+pERK2]/[GAPDH] band intensity” value (pERK1,2; 30min, control ratio 1.70) of the same molecule?
**A.** 1.61

**Q.** And the “ratio [pERK1+pERK2]/[GAPDH] band intensity” value (pERK1,2; 1h, control ratio 1.78)?
**A.** 1.08

**Q.** What about the “ratio [pERK1+pERK2]/[GAPDH] band intensity” value (pERK1,2; 3h, control ratio 1.74) of the same molecule?
**A.** 0.89

**Q.** And the “ratio [pERK1+pERK2]/[GAPDH] band intensity” value (pERK1,2; 12h, control ratio 1.61)?
**A.** 0.85

**Q.** What about the “ratio … (panel A)” value (pERK1,2; 1h, control ratio 1.78) of the same molecule?
**A.** 0.54

**Q.** And the “ratio … (panel A)” value (pERK1,2; 3h, control ratio 1.78)?
**A.** 0.49

**Q.** What about the LD50 (in vivo) of the same molecule?
**A.** 95 mg/kg
